According to patent US10945980B2, “Treatment for myopia” (The University of Newcastle, priority 2016, dated 2021):

How the values were obtained:
[1] = system: form deprivation myopia in guinea pigs; experiment: Intravitreal L-arginine in form deprivation (FD) myopia, 3 days diffuser wear; format: in vivo, guinea pig (Cavia porcellus)
Protocol: Fifty-seven pigmented guinea pigs (Cavia porcellus) were sourced from the University of Newcastle and housed as described in Example 1. Animals were provided with food and water ad libitum and the room temperature was maintained at 22° C. The University of Newcastle under Australian legislative requirements approved all procedures.
Animals wore classical form diffusers made of translucent moulded Perspex (0.8 mm thickness, 24% transmission) on their right eyes. Diffusers were mounted onto plastic washers backed with Velcro® and attached to mating Velcro® arcs which were affixed above and below the eye.
Animals were assigned to one of seven treatment groups (Table 1). From seven days of age, five of these groups were form deprived in the right eye for 3 days with a diffuser (two groups wore no diffusers and served as controls for form deprived animals). Six groups of animals were intravitreally injected with either L-arginine or physiological saline once per day, just before lights came on at 10 am. One group wore diffusers, but received no injection as a control. At ten days of age, cycloplegia was induced in all animals and refractive error and ocular components were measured. Two retinas, one a saline control and another that had been injected with the highest dose of L-arginine, were analysed by histochemistry for morphological markers of L-arginine induced toxicity.
To establish the size of the guinea pig vitreous, and thus the molarity of the substrate within the eye, ten vitreous chambers were extracted from ten eyes. The volume of the vitreous was 125 μl. Based on this, three drug doses of L-arginine were employed: low (0.4 mM), medium (2.2 mM) and high (non-toxic: 9.3 mM) (See Table 1). A 30 gauge Hamilton syringe was used to slowly inject into the vitreous through the temporal sclera of right eyes, approximately 2 mm posterior to the limbus. All injections were 10 μl of either physiological saline (0.9%) or L-arginine dissolved in saline (pH 7.4 for all injections).
Cycloplegia was induced as described in Example 1, and refractive error subsequently measured as described in Example 1.
Ocular length and axial components were also determined as described in Example 1.
The data presented are means±standard errors of the mean. All figures and statistics are based on the difference between the lens-wearing eye and the fellow non lens-wearing eye and are referred to as relative refractive error and relative ocular distances. Statistical comparisons between lens wearing groups were based on one way ANOVAs followed by Holm-Sidak post hoc tests to account for family-wise error. Correlations were based on Pearson's regression analysis. Statistical analysis used Prism®, Graph Pad Software, Inc. V 6.

[2] = system: form deprivation myopia in guinea pigs; experiment: Oral (gavage) L-arginine in form deprivation myopia; format: in vivo, guinea pig (Cavia porcellus)
Source text: Guinea pigs (pigmented variety, Cavia porcellus) were bred, housed, and raised as described in Example 1. The University of Newcastle Animal Care and ethics Committee approved all procedures.
Two experimental protocols were employed (Table 3). In Experiment 1, 12 animals wore a diffuser over one eye (form-deprivation, FD) for […]. This period reliably induces myopia in the deprived eye compared to the untreated fellow eye. Seven of these animals also concurrently received a single gavage of L-arginine (200 mg/kg/day) each day at 9:30 am while briefly anaesthetised. […]
At the end of the FD period, at 12 days of age (Experiment 1) or at […] (Experiment 2), after the morning gavage treatment, both eyes were cyclopleged and 1.25 hours later, refractive error was measured. […]
After cycloplegia was induced, refractive error was measured in each eye using streak retinoscopy as previously described (Howlett and McFadden, 2007; McFadden et al., 2004). The spherical equivalent was calculated as the average of the horizontal and vertical meridians (see Howlett and McFadden, 2006). Next, ocular length was measured using high frequency ultrasound (20 MHz) as previously described (McFadden et al, 2004). At least 20 traces were recorded for each eye and distances were averaged for at least 10 of these recordings. […]

N=C(N)NCCC[C@H](N)C(=O)O [L-arginine]
relative refractive error compared with animals that had no form deprivation ([1]; FD 2.2 mM and FD 9.3 mM groups, daily intravitreal injection, 3 days FD): not significantly different from animals that had no form deprivation | ocular length, shortening relative to FD NIL ([1]; FD 9.3 mM (high dose, intravitreal) vs form deprivation only, p<0.001): −484 μm | vitreous chamber depth, difference FD 0 mM vs FD 9.3 mM ([1]; FD + vehicle vs FD + 9.3 mM L-arginine, did not reach significance, p=0.12): 215 μm | choroid thickness, FD 0 mM thinner than FD 9.3 mM ([1]; FD + vehicle vs FD + 9.3 mM L-arginine, not significant, p=0.14): 31 μm | ocular length, FD 0 mM greater than FD 9.3 mM ([1]; FD + vehicle vs FD + high dose L-arginine 9.3 mM intravitreal, p<0.001): 403 μm | vitreous chamber depth, FD NIL longer than FD 9.3 mM ([1]; form deprivation only vs FD + 9.3 mM L-arginine intravitreal, p<0.001): 484 μm | choroid thickness, difference FD NIL vs FD 9.3 mM ([1]; form deprivation only vs FD + 9.3 mM L-arginine intravitreal, p=0.03): −39 μm | relative elongation (FD eye vs untreated eye) ([2]; Experiment 1: 200 mg/kg once daily gavage, 7 days FD, p=0.714): 42±30 μm | eye lengths vs animals only fed water ([2]; Experiment 2: 25 mg/kg twice daily gavage, 3 days FD, both the FD eye and the fellow eye): smaller eye lengths than animals only fed water
